Here are results for seven compounds from patent US12398154B2, “Azaquinazoline pan-KRas inhibitors” (Mirati Therapeutics, Inc., priority 2020, dated 2025).

In assay [1] the test system is pERK in H460 cells. As to the kind of experiment: Inhibition of KRas phosphorylation of ERK (Cisbio HTRF pERK assay). To be noted: Homo sapiens, NCI-H460, read-out: Inhibition (HTRF IC50) of KRas-mediated Phosphorylation of ERK, H460. Background: Time-resolved FRET reads energy transfer from a long-lived donor to a nearby acceptor.
Assay [2] deals with pERK in HCT116 cells. The assay is described as above. Conditions: Homo sapiens, HCT-116, read-out: Inhibition (HTRF IC50) of KRas-mediated Phosphorylation of ERK, HCT116.
The test system of assay [3] is pERK in PSN1 cells. The description is as above. To be noted: Homo sapiens, PSN1, 3 h, read-out: Inhibition (HTRF IC50) of KRas-mediated Phosphorylation of ERK, PSN1.
Description: (§2) To harvest cells from flask using 0.05% Trypsin/EDTA solution. Add 10 mL of media to stop trypsinizing. Pipette the cells into a conical bottom 50 mL centrifuge tube and centrifuge 5 min×1000 rpm. • 2. Re-suspend the cell pellet in media, take a cell count, and then adjust the cell density using fresh media. • 3. Seed 6,000 cells into cell culture plate with 50 μL media. […] Incubate cell plate overnight in a 37° C., 5% CO2 incubator. • Compound titrations • 1. Use Tecan to complete the compound addition. Compounds start from 10 uM top, 3-fold dilution, and 10 doses. The final DMSO concentration is 0.8%. Dispensed 0.2 uM Trametinib as Min control. • 2. Incubate cell plate for 3 hrs in the incubator. • Detection with cisbio pERK HTRF kit • 1. […] At the end of the compound treatment, flick-off the media. • 3. Add 35 μL of lysis buffer per well using a Multidrop Combi. Then place on a plate agitator shaking at 300 rpm at 4° C. for 40 mins. • 4. Make up the HTRF antibody buffer. For each assay plate, mix 50 μL of d2-conjugate antibody with 950 μL of detection buffer. Similarly, mix 50 μL of Cryptate antibody with 950 μL of detection buffer. Then mix the two diluted antibodies together. • 5. Dispense 3.4 μL the antibody buffer to wells of an empty assay plate. Seal the plate and centrifuge plate 30 sec×1000 rpm. • 6. At the end of the 4° C. lysis, centrifuge the lysate plates 3 mins×1500 rpm. • 7. Use the Bravo to transfer 13.6 μL of lysate from cell culture plate to assay plate.
(§3) Then incubate assay plate for 2 hrs at room temperature. […] At the end of incubation, read plate on the Envision after centrifuging plate 30 sec× • 1000 rpm.
The test system of assay [4] is pERK in MKN1 cells. The description is as above. To be noted: Homo sapiens, MKN-1, 3 h, read-out: Inhibition (HTRF IC50) of KRas-mediated Phosphorylation of ERK, MKN1.
Assay [5] has as its target KRas G12R (Homo sapiens, UniProt P01116, G12R). As to the kind of experiment: biochemical.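 Also: TR-FRET displacement assay of compound binding to KRas, read after one hour at room temperature, potency from a four-parameter fit of percent-of-control values.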
Description: (§4) The ability of a compound to bind to KRas was measured using a TR-FRET displacement assay. […] After a 60-minute incubation at room temperature, the reaction was measured using a BMG LABTECH CLARIO star Plus via TR-FRET. […] The POC values were fit to a 4-parameter IC50 equation and the IC50 value reported.
Assay [6] has as its target KRas G12V (Homo sapiens, UniProt P01116, G12V). The assay is described as follows: biochemical.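 Also: KRas binding measured by TR-FRET displacement at room temperature, IC50 fitted from percent of control values.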
Description: as §4
Assay [7] relates to pERK in H358 cells. As to the kind of experiment: Inhibition of KRas phosphorylation of ERK (Cisbio HTRF pERK assay). Conditions: Homo sapiens, NCI-H358, read-out: Inhibition (HTRF IC50) of KRas-mediated Phosphorylation of ERK, H358.
Assay [8] has as its system pERK in A549 cells. The assay is described as above. Conditions: Homo sapiens, A549, read-out: Inhibition (HTRF IC50) of KRas-mediated Phosphorylation of ERK, A549.
Description: as §2, §3
Assay [9] deals with phospho-ERK in NCI-H460 (Q61H) cells. As to the kind of experiment: Inhibition of KRas-mediated phosphorylation of ERK (in-cell western). The assay is classed as cell-based. Conditions: Homo sapiens, NCI-H460, 3 h, 3 hours compound, phospho-ERK normalized to GAPDH. Put shortly: (§1)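 Following fixation in formaldehyde and permeabilization in cold methanol, ERK phosphorylated at Thr202/Tyr204 was quantified against GAPDH.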

Assay [10] deals with phospho-ERK in AsPC-1 (G12D) cells. The assay is described as above. It counts as cell-based. To be noted: Homo sapiens, ASPC1, 3 h, 3 hours compound, phospho-ERK normalized to GAPDH. Put shortly:
as §1

The test system of assay [11] is phospho-ERK in NCI-H727 (G12V) cells. The description is as above. It counts as cell-based. Conditions: Homo sapiens, NCI-H727, 3 h, 3 hours compound, phospho-ERK normalized to GAPDH. Put shortly: as §1
Assay [12] addresses KRas G12D (Homo sapiens, UniProt P01116, G12D). The assay is described as follows: biochemical.
Description: as §4
Assay [13] has as its system pERK in ASPC1 cells. As to the kind of experiment: Inhibition of KRas phosphorylation of ERK (Cisbio HTRF pERK assay). Conditions: Homo sapiens, ASPC1, read-out: Inhibition (HTRF IC50) of KRas-mediated Phosphorylation of ERK, AsPC-1.
The subject of assay [14] is pERK in H727 cells. Described as above. Conditions: Homo sapiens, NCI-H727, read-out: Inhibition (HTRF IC50) of KRas-mediated Phosphorylation of ERK, H727.
The target of assay [15] is KRas G12A (Homo sapiens, UniProt P01116, G12A). As to the kind of experiment: biochemical.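 Also: binding to KRas measured by TR-FRET displacement after one hour at room temperature, IC50 from a four-parameter fit of percent-of-control values.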
Description: as §4
Assay [16] addresses KRas WT (Homo sapiens, UniProt P01116). As to the kind of experiment: biochemical.
Description: as §4
In assay [17] the target is KRas G12C (Homo sapiens, UniProt P01116, G12C). The assay is described as follows: biochemical.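 Also: binding to KRas assessed by TR-FRET displacement after one hour incubation at room temperature, potency fitted from percent-of-control values.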
Description: as §4
Assay [18] addresses KRas G12S (Homo sapiens, UniProt P01116, G12S). As to the kind of experiment: biochemical.
Description: as §4

Some results are limits rather than exact numbers.

Sequence of KRas G12V (P01116 1-169 isoform P01116-2 G12V): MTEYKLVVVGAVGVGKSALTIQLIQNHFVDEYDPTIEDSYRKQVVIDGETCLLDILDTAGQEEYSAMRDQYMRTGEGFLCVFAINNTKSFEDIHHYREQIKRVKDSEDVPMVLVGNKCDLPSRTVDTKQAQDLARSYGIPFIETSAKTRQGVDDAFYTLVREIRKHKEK
Sequence of KRas G12D (P01116 1-169 isoform P01116-2 G12D): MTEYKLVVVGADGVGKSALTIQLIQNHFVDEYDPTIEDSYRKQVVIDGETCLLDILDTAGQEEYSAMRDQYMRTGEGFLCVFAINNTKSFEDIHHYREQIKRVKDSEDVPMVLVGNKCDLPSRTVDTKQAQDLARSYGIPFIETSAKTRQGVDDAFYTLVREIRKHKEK
Sequence of KRas G12C (P01116 1-169 isoform P01116-2 G12C): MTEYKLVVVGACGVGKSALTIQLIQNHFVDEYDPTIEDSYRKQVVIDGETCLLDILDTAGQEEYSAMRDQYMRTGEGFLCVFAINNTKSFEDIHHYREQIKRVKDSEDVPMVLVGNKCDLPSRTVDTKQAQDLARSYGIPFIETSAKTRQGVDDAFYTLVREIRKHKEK
Sequence of KRas WT (P01116 1-169 isoform P01116-2): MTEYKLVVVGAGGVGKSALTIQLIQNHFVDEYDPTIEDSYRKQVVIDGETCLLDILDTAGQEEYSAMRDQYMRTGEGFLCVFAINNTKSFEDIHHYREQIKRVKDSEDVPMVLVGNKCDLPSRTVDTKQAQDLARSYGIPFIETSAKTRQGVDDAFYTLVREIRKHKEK
Sequence of KRas G12A (P01116 1-169 isoform P01116-2 G12A): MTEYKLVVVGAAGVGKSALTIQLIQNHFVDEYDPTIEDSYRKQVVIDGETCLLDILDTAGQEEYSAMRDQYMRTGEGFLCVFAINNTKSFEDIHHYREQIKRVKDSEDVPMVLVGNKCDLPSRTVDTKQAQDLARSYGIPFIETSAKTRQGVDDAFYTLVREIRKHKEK
Sequence of KRas G12S (P01116 1-169 isoform P01116-2 G12S): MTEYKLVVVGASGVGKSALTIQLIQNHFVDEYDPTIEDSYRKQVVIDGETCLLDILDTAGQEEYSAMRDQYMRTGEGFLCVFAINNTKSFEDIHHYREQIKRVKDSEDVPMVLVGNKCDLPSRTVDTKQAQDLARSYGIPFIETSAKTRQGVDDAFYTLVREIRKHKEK
Sequence of KRas G12R (P01116 1-169 isoform P01116-2 G12R): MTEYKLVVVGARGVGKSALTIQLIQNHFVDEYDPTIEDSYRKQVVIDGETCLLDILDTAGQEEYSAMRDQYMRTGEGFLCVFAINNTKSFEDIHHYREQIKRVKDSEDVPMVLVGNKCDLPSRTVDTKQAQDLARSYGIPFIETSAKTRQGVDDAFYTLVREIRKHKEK

The IC50 is the concentration needed to halve the response being measured. Take `CCc1c(F)ccc2cc(O)cc(-c3ncc4c(N5CCCC(O)(C(F)F)C5)nc(OC[C@@]56CCCN5C[C@H](F)C6)nc4c3F)c12` (stereo partly shown) [Example 184]: the IC50 was 39 nM in assay [1]; 91 nM in assay [2]; 1230 nM in [3]; 7 nM in [4]; 3 nM in assay [5]; at most 2 nM in assay [6]. For the same compound, the IC50 in assay [7] was 15 nM; in assay [8], 44 nM; in [9], 30 nM; in assay [10], 66 nM; in [11] it was 201 nM; in assay [12], at most 2 nM. Also, the IC50 in assay [13] turned out to be 7 nM; in assay [14], 90 nM.

Take `CCc1c(F)ccc2cc(O)cc(-c3ncc4c(N5CCC[C@@](C)(O)C5)nc(OC[C@]56CCCN5[C@H](COC(=O)N(C)C)CC6)nc4c3F)c12` [Example 313, ((3S,7aR)-7a-(((7-(8-ethyl-7-fluoro-3-hydroxynaphthalen-1-yl)-8-fluoro-4-((R)-3-hydroxy-3-methylpiperidin-1-yl)pyrido[4,3-d]pyrimidin-2-yl)oxy)methyl)hexahydro-1H-pyrrolizin-3-yl)methyl dimethylcarbamate]: the IC50 in [1] was 38 nM; in assay [2], 42 nM; in assay [3] it was 2120 nM; in [4], 7 nM; in assay [5], at most 2 nM; in assay [6], at most 2 nM. The IC50 in [15] was at most 2 nM; in [16], at most 2 nM; in assay [7], 4 nM; in assay [8] it was 38 nM; in assay [17] it was at most 2 nM; in assay [12], at most 2 nM. Further, the results for the IC50 in [13], in assay [14] and in assay [18] were 13 nM, 28 nM and at most 2 nM, respectively.

With `CCc1c(F)ccc2cc(O)cc(-c3ncc4c(N5CCC[C@@](C)(O)C5)nc(OC[C@@]56CCCN5[C@H](COC(=O)N(C)C)CC6)nc4c3F)c12` [Example 314, ((3S,7aS)-7a-(((7-(8-ethyl-7-fluoro-3-hydroxynaphthalen-1-yl)-8-fluoro-4-((R)-3-hydroxy-3-methylpiperidin-1-yl)pyrido[4,3-d]pyrimidin-2-yl)oxy)methyl)hexahydro-1H-pyrrolizin-3-yl)methyl dimethylcarbamate], the IC50 in assay [1] is 14 nM; in [2], 21 nM; in [3] it was 407 nM; in [4], 3 nM; in assay [5], at most 2 nM; in [6] it was at most 2 nM. Moreover, the IC50 is at most 2 nM in [15]; at most 2 nM in [16]; 2 nM in assay [7]; 19 nM in [8]; at most 2 nM in assay [17]; at most 2 nM in assay [12]. Moreover, the IC50 in [13] is 9 nM; in [14] it was 21 nM; in [18], at most 2 nM.

Consider `CCc1c(F)ccc2cc(O)cc(-c3ncc4c(N5CCCCCC5)nc(OC[C@@]56CCCN5C[C@H](F)C6)nc4c3F)c12` [Example 317, 4-(4-(azepan-1-yl)-8-fluoro-2-(((2R,7aS)-2-fluorohexahydro-1H-pyrrolizin-7a-yl)methoxy)pyrido[4,3-d]pyrimidin-7-yl)-5-ethyl-6-fluoronaphthalen-2-ol], for which the IC50 in assay [1] is 287 nM; in assay [2], 98 nM; in assay [3], 3930 nM; in [4] it was 20 nM; in assay [5] it was at most 2 nM; in assay [6], at most 2 nM. Moreover, the IC50 in assay [15] is at most 2 nM; in assay [16], at most 2 nM; in assay [7], 985 nM; in assay [8] it was 197 nM; in [17], at most 2 nM; in [12], at most 2 nM. For the same compound, the 50% inhibitory concentration (IC50) in assay [13] is 40 nM; in [14], 46 nM; in assay [18], at most 2 nM.

Take `CCc1c(F)ccc2cc(O)cc(-c3ncc4c(N5CCOC[C@@](C)(O)C5)nc(OCC5(CN6CCCC6)CC5)nc4c3F)c12` [Example 321, (S)-4-(7-(8-ethyl-7-fluoro-3-hydroxynaphthalen-1-yl)-8-fluoro-2-((1-(pyrrolidin-1-ylmethyl)cyclopropyl)methoxy)pyrido[4,3-d]pyrimidin-4-yl)-6-methyl-1,4-oxazepan-6-ol]: the IC50 is 71 nM in [1]; 39 nM in [2]; 7760 nM in assay [3]; 3 nM in assay [4]; at most 2 nM in [5]; at most 2 nM in assay [6]. The IC50 in assay [15] was at most 2 nM; in assay [16], at most 2 nM; in assay [7] it was 7 nM; in assay [8] it was 99 nM; in assay [17] it was at most 2 nM; in [12], at most 2 nM. In addition, the IC50 in assay [13] was 16 nM; in [14], 30 nM; in [18], at most 2 nM.

Regarding `CCc1c(F)ccc2cc(O)cc(-c3ncc4c(N5CCCn6nc(C(=O)N(C)C)cc6C5)nc(OC[C@@]56CCCN5C[C@H](F)C6)nc4c3F)c12` [Example 326, 5-(7-(8-ethyl-7-fluoro-3-hydroxynaphthalen-1-yl)-8-fluoro-2-(((2R,7aS)-2-fluorohexahydro-1H-pyrrolizin-7a-yl)methoxy)pyrido[4,3-d]pyrimidin-4-yl)-N,N-dimethyl-5,6,7,8-tetrahydro-4H-pyrazolo[1,5-a][1,4]diazepine-2-carboxamide], the IC50 is 253 nM in assay [1]; 274 nM in assay [2]; at least 10000 nM in [3]; 8 nM in assay [4]; at most 2 nM in assay [5]; at most 2 nM in assay [6]. In addition, the IC50 in assay [15] is at most 2 nM; in [16], at most 2 nM; in assay [7] it was 18 nM; in assay [8], 138 nM; in assay [17], at most 2 nM; in assay [12], at most 2 nM. The IC50 in [13] was 10 nM; in [14] it was 26 nM; in [18], at most 2 nM.

`C#Cc1c(F)ccc2cc(O)cc(-c3ncc4c(N5C[C@@H]6C[C@H](C5)[C@H](O)C6)nc(OC[C@@]56CCCN5C[C@H](F)C6)nc4c3F)c12` [Example 388, (1R,5R,6R)-3-(7-(8-ethynyl-7-fluoro-3-hydroxynaphthalen-1-yl)-8-fluoro-2-(((2R,7aS)-2-fluorohexahydro-1II-pyrrolizin-7a-yl)methoxy)pyrido[4,3-d]pyrimidin-4-yl)-3-azabicyclo[3,2,1]octan-6-ol]: the IC50 is 21 nM in assay [1]; 9 nM in assay [2]; 409 nM in assay [3]; 8 nM in [4]; at most 2 nM in assay [5]; at most 2 nM in assay [6]. Besides, the IC50 in [15] was at most 2 nM; in assay [16], at most 2 nM; in [7], 1 nM; in [8] it was 18 nM; in assay [9], 16 nM; in [11], 16 nM. In addition, the IC50 in assay [17] was at most 2 nM; in assay [12], at most 2 nM; in assay [13], 14 nM; in assay [14], 5 nM; in assay [18] it was at most 2 nM.
